{"source": "paper PMC9851200", "about": "“Multiparameter phenotypic screening for endogenous TFEB and TFE3 translocation identifies novel chemical series modulating lysosome function” (Autophagy, 2022)", "origin": "cited, not measured here", "design_in_all_cases": "method as in original PKIS2 published data", "key": {"[1]": {"target": "T1, kinases (KINOMEscan panel) (Homo sapiens, UniProt P20794)", "T1 sequence (P20794 1-623)": "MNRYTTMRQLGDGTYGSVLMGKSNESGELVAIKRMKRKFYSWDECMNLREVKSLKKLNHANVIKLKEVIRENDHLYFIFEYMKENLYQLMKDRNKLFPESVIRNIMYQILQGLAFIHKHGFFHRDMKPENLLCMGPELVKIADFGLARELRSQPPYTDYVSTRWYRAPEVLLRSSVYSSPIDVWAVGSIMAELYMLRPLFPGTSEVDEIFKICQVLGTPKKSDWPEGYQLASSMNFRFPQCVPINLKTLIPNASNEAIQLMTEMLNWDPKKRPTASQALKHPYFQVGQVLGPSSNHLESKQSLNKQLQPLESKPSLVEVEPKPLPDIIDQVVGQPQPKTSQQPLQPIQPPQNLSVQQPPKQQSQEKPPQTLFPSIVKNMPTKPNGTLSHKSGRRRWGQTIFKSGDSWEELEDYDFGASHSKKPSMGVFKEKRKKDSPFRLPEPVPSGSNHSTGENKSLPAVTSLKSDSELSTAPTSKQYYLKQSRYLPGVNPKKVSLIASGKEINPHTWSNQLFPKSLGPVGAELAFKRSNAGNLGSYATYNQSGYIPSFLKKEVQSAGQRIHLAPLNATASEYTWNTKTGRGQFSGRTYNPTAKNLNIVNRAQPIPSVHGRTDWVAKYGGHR", "details": "Published KINOMEscan; ref original PKIS2 published data; cited from earlier work"}, "[2]": {"target": "kinases (KINOMEscan panel) (Homo sapiens, UniProt P48736)", "details": "kinase PIK3CG; Published KINOMEscan; ref original PKIS2 published data; cited from earlier work"}, "[3]": {"target": "kinases (KINOMEscan panel) (Homo sapiens, UniProt P49137)", "sequence (P49137 whole entry)": "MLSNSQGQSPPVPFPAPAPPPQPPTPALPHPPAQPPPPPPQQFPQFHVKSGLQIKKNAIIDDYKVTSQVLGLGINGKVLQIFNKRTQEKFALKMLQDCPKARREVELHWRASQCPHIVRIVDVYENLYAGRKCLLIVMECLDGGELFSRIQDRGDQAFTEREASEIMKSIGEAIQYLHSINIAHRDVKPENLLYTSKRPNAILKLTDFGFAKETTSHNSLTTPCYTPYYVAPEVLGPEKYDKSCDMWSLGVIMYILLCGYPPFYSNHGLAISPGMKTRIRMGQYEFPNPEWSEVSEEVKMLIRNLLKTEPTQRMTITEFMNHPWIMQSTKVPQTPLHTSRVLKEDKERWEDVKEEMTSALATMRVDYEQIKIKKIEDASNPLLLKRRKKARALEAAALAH", "details": "kinase MAPKAPK2; Published KINOMEscan; ref original PKIS2 published data; cited from earlier work"}, "[4]": {"target": "kinases (KINOMEscan panel) (Homo sapiens, UniProt Q9BYP7)", "details": "Published KINOMEscan; ref original PKIS2 published data; cited from earlier work"}, "[5]": {"target": "kinases (KINOMEscan panel) (Homo sapiens, UniProt Q04912)", "sequence (Q04912 25-1400)": "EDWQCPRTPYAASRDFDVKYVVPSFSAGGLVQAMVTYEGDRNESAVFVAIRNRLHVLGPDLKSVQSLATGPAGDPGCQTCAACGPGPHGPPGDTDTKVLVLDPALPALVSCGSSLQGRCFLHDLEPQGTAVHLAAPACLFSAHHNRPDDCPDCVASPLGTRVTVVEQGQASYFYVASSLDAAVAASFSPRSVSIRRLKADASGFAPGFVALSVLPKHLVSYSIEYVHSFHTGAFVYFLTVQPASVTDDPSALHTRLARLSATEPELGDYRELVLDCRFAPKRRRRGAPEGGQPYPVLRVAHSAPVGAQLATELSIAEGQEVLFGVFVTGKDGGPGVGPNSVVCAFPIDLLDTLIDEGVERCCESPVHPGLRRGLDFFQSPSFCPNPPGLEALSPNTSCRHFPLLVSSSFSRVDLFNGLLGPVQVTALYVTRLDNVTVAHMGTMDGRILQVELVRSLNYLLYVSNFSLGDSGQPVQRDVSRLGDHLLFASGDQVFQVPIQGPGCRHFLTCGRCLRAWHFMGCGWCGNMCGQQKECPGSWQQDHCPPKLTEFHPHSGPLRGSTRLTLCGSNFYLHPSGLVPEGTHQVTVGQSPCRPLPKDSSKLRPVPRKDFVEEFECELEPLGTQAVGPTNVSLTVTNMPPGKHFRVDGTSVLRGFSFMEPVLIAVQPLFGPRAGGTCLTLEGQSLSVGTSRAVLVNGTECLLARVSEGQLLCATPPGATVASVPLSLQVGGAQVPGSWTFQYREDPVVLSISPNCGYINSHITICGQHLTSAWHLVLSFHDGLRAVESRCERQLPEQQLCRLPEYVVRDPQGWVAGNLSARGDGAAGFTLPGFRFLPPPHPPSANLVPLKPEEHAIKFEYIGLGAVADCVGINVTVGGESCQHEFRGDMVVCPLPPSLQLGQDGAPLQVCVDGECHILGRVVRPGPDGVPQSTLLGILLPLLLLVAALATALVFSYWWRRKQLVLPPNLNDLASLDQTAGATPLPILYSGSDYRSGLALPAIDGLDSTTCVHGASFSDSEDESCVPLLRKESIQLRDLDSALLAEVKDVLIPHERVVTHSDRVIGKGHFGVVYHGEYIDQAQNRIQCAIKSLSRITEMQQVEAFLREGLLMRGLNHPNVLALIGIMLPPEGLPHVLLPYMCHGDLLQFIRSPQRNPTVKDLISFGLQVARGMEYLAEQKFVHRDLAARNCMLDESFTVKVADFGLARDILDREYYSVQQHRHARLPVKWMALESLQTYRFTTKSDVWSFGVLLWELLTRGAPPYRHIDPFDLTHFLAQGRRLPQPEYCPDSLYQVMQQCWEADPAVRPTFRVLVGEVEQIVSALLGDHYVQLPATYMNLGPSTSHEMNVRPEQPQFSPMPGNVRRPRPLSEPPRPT", "details": "MST1R; Published KINOMEscan; ref original PKIS2 published data; cited from earlier work"}, "[6]": {"target": "T2, kinases (KINOMEscan panel) (Homo sapiens, UniProt P15735)", "T2 sequence (P15735 1-406)": "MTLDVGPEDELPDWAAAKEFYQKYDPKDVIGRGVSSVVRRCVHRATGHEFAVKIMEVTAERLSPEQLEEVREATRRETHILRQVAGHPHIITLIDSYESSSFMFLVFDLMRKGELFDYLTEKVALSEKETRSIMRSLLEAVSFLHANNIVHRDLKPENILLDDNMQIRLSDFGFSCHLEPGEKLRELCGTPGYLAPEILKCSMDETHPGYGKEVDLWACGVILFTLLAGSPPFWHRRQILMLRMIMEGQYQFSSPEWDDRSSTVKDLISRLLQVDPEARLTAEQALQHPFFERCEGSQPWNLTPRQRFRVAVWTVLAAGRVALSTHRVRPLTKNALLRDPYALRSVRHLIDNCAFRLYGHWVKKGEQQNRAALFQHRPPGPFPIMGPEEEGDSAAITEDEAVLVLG", "details": "kinase PHKG2; Published KINOMEscan; ref original PKIS2 published data; cited from earlier work"}, "[7]": {"target": "T3, kinases (KINOMEscan panel) (Homo sapiens, UniProt Q6PHR2)", "T3 sequence (Q6PHR2 1-472)": "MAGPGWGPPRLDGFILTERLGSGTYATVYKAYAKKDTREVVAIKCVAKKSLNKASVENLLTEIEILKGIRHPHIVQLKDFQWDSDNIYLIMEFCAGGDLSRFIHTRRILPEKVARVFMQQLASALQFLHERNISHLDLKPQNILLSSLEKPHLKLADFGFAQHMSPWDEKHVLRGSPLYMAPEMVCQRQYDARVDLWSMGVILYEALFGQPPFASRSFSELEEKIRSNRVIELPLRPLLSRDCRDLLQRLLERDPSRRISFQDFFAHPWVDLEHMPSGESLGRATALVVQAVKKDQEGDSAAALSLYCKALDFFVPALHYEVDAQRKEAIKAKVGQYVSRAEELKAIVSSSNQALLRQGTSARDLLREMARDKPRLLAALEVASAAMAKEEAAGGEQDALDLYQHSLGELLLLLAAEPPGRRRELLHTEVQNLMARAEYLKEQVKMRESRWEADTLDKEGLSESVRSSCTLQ", "details": "kinase ULK3; Published KINOMEscan; ref original PKIS2 published data; cited from earlier work"}, "[8]": {"target": "kinases (KINOMEscan panel) (Homo sapiens, UniProt Q9H4A3)", "sequence (Q9H4A3 whole entry)": "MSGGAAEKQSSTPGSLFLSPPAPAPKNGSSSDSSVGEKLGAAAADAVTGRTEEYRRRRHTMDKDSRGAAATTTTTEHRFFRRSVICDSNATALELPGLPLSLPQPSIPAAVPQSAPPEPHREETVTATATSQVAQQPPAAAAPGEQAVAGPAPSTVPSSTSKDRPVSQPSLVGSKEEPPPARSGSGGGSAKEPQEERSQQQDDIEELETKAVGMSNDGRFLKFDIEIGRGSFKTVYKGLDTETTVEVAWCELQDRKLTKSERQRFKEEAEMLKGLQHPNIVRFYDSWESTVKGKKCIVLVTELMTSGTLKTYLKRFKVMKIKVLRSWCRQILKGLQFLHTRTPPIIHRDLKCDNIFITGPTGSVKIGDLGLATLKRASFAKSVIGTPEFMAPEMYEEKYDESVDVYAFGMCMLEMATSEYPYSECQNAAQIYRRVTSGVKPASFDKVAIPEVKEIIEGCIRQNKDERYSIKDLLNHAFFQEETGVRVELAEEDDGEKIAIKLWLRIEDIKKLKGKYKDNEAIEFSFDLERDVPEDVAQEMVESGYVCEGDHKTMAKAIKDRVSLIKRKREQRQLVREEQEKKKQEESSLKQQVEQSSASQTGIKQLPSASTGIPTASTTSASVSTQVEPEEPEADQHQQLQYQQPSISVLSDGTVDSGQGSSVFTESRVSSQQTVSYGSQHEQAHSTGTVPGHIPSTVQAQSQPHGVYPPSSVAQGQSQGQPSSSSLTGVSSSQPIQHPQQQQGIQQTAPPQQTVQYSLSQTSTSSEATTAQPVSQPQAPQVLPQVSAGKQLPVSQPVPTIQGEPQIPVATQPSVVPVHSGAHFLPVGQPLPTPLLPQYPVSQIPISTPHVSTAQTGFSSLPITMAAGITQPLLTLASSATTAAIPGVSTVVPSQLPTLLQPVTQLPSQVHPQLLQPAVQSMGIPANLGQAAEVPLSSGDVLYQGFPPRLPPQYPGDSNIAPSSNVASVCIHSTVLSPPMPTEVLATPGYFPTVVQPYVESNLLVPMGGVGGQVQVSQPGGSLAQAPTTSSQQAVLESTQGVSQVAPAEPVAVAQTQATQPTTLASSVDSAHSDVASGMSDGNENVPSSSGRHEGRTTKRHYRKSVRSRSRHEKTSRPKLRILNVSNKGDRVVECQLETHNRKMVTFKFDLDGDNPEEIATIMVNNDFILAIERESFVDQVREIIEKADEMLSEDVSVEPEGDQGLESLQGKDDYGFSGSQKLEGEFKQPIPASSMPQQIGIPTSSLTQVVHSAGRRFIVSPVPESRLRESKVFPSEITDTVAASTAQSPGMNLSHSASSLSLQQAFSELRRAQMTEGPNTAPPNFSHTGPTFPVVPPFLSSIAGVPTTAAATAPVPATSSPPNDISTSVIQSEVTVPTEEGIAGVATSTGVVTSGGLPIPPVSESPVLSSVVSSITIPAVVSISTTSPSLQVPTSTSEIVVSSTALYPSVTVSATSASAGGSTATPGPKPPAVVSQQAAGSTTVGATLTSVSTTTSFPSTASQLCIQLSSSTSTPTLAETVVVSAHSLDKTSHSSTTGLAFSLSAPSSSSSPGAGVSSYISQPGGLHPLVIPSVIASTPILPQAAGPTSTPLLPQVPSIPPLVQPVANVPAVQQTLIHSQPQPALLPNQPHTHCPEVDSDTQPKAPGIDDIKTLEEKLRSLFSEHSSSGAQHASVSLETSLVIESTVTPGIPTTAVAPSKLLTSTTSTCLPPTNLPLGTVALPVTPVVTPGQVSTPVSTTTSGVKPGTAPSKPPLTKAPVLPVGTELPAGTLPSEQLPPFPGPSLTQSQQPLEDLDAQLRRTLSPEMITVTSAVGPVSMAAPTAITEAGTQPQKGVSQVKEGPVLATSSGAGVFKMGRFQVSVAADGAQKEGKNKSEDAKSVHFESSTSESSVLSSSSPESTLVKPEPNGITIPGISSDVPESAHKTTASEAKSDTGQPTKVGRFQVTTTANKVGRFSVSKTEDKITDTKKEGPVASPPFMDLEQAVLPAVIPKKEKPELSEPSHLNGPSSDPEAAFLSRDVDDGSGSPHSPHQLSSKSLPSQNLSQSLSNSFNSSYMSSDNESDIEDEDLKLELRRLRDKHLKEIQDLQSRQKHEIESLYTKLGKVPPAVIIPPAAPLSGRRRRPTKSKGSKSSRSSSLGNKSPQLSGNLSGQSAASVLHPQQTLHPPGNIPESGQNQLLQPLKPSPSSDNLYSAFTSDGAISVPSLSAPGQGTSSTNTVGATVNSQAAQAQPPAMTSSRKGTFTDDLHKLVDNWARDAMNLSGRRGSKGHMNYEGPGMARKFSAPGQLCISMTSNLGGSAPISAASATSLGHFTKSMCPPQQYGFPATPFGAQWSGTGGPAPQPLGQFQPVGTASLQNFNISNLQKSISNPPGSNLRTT", "details": "Published KINOMEscan; ref original PKIS2 published data; cited from earlier work"}, "[9]": {"target": "kinases (KINOMEscan panel) (Homo sapiens, UniProt O60331)", "sequence (O60331 whole entry)": "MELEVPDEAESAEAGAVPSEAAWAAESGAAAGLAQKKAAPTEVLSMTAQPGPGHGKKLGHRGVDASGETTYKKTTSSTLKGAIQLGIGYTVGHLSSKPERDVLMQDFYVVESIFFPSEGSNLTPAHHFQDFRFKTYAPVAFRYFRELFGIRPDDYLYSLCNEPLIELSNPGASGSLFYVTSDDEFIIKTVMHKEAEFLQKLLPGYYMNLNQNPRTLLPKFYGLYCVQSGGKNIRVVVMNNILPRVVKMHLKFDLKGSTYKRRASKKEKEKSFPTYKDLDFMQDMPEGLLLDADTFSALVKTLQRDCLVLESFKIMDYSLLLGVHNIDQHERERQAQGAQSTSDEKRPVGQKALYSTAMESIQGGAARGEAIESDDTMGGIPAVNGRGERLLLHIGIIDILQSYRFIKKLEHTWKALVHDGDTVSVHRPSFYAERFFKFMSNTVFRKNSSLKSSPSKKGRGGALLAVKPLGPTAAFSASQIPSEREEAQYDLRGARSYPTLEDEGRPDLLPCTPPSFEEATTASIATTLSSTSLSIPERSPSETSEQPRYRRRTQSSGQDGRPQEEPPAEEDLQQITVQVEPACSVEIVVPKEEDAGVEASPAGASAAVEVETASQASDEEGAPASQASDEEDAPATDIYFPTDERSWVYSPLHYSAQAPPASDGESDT", "details": "PIP5K1C; Published KINOMEscan; ref original PKIS2 published data; cited from earlier work"}, "[10]": {"target": "kinases (KINOMEscan panel) (Homo sapiens, UniProt P11802)", "sequence (P11802 whole entry)": "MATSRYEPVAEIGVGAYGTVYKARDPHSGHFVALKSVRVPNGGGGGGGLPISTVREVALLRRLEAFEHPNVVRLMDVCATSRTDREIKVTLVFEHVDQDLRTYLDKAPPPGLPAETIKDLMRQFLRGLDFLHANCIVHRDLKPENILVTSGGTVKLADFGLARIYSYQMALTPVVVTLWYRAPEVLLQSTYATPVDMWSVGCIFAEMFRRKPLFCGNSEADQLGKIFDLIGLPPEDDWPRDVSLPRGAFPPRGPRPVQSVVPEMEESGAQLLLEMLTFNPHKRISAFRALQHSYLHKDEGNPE", "details": "Published KINOMEscan, ref original PKIS2 published data, cited from earlier work"}}, "data": [{"smiles": "Cc1cccc(-c2nc(Nc3ccncc3)c3ccccc3n2)n1", "note": "[NK215]", "values": [{"measurement": "KINOMEscan MAK", "setting": "[1]", "result": 0}, {"measurement": "KINOMEscan PIK3CG", "setting": "[2]", "result": 0}, {"measurement": "KINOMEscan MAPKAPK2", "setting": "[3]", "result": 0}, {"measurement": "KINOMEscan WNK3", "setting": "[4]", "result": 0}, {"measurement": "KINOMEscan MST1R", "setting": "[5]", "result": 0}, {"measurement": "KINOMEscan PHKG2", "setting": "[6]", "result": 3}, {"measurement": "KINOMEscan ULK3", "setting": "[7]", "result": 8}, {"measurement": "KINOMEscan WNK1", "setting": "[8]", "result": 0}, {"measurement": "KINOMEscan PIP5K1C", "setting": "[9]", "result": 40}, {"measurement": "KINOMEscan CDK4-cyclinD1 (???) CCND1", "setting": "[10]; CDK4-cyclinD1 (???) CCND1", "result": 13}, {"measurement": "KINOMEscan CDK4-cyclinD3", "setting": "[10]; kinase CDK4-cyclinD3", "result": 0}, {"measurement": "KINOMEscan CDK4", "setting": "[10]; kinase CDK4", "result": 0}]}]}
